Test results as given in US12606537B2, “Thiophene derivatives” (priority 2019, dated 2026).
Like-named read-outs stand apart in the source and are kept apart here.

What was measured:
[1] = target: T1, interaction of the PAS B domains of HIF-2α and HIF-1β (Homo sapiens, UniProt Q99814); assay: AlphaScreen protein protein interaction assay; assay type: biochemical
T1 construct: His6Gb1-TEV-GEFKGL-HIF2α (240-350aa)-G; His6 (N); Gb1 (protein G B1 domain) (N); TEV site (N)
Procedure: For the assessment of functional disruption of the interaction of the PAS B domains of HIF-2α and HIF-1β an AlphaScreen assay was set-up. The assay was performed in 384 well light gray Perkin Elmer microtiter plates in a total volume of 7 μl. […] The detection of the protein protein interaction was performed by adding AlphaLISA® Anti-FLAG Acceptor beads (fc 20 μg/mL) and AlphaScreen® Nickel Chelate Donor beads (fc 9 μg/mL) (both Perkin Elmer) and the reaction was incubated for 240 min at 23° C. in the dark. If donor and acceptor beads get in close proximity to each other caused by interaction of HIF2alpha PAS B with HIF-1ß PAS B domain it results in a luminescence signal at 615 nm after excitation at 680 nm. The PPI disruption activity of a compound was calculated directly from the loss in Alphascreen signal. The AlphaScreen signal was measured with an Envision multimode reader (Perkin Elmer LAS Germany GmbH). The control value used was the inhibitor-free reaction. The pharmacological zero value used was determined in the absence of HIF-1ß. The inhibitory values (IC50) were calculated using Assay analyser from GeneData.

[2] = system: HIF2α-HIF1β complex; assay: Cellular mechanistic assay: 786-O HRE-luc2P reporter assay; assay type: cell-based, human
Procedure: This reporter assay was designed to monitor binding of the HIF2α-HIF1β complex to specific DNA fragment called hypoxia response element (HRE) in physiologically relevant cell line. […] HRE is present in promoters of various genes regulated by hypoxia inducible factors. […] As a result, this reporter assay allows monitoring of HIF2α-HIF1β activity by determining the activity of produced luciferase. Cell culture is performed in RPMI media supplemented with 10% FBS, Sodium Pyruvate, Penicillin/Streptomycin, Glutamine, 200 μg/mL Hygromycin Gold.
The assay was performed in 384 well white, opaque microtiterplate with transparent bottom (Greiner Bio-one, Frickenhausen). […] 50 μl of cell suspension (2000 cells) per well were dispensed in microtiter plates and incubated over night at 37° C. in a 5% CO2 incubator. Compounds were added with Labcyte Echo dispenser (fc 0.3% DMSO, 9 concentrations dilution raw starting at 30 μM). Plates were incubated for 48 h at 37° C. in a 5% CO2 incubator. After this 45 μl of prewarmed ONE-Glo™ EX Reagent were added per well. Plates were placed on an orbital shaker at 1200 rpm for 3 minutes. Plates were sealed and luminescence was measured a Tecan Spark 20M microplate reader (end-point measurement with 0.1 second reading time). Values were normalized to DMSO ctrl and wells without cells (only medium ctrl). Decrease in luminescence directly correlates with inhibition of HIF2α activity. EC50 values and % of effect values were calculated fitting a variable-slope sigmoidal function using Ryvu Therapeutics (formerly Selvita S.A.) DRC application or GraphPad Prism software.

[3] = target: T2, HIF2a (240-350)-G (Homo sapiens, UniProt Q99814); assay: ITC (isothermal titration calorimetry) binding
T2 construct: The protein, HIF2a (240-350)-G, was prepared by recombinant overexpression; made in house
Procedure: ITC measurements were performed with a VP-ITC microcalorimeter from MicroCal/Malvern (UK). For all titration experiments the protein and the respective compounds were formulated in 30 mM HEPES buffer pH 7.5, 150 mM NaCl and 5 mM ß-mercaptoethanol. The protein, HIF2a (240-350)-G, was prepared by recombinant overexpression and multistep chromatography purification. Compounds were used from concentrated DMSO stock solutions. The final protein concentration in the injection syringe was 100 μM. Ligand stock solutions of 10 mM in DMSO were diluted to 10 μM concentrations with buffer and loaded into the sample cell. All buffers were adjusted to a final concentration of 1% (v/v) DMSO. Both, the titrate and titrant solutions were degassed prior to loading the calorimeter cell and injection syringe. […] The integrated heat data were fit with a one-site binding model to determine the apparent values for affinity, enthalpy and stoichiometry of binding.

[4] = Homo sapiens, 786-0, 48 h, read-out: HRE-luc2P reporter assay IC50, 786-O HRE-luc2P cells, 48 h incubation, luciferase luminescence
[5] = read-out: HRE-luc2P reporter assay IC50, 786-O HRE-luc2P cells, 48 h incubation, luciferase luminescence

T1 sequence (Q99814 240-350): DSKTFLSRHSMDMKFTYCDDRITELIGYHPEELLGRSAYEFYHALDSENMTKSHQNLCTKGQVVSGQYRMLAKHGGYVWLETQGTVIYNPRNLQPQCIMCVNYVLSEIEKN
T2 sequence (Q99814 240-350): as above

SMILES	IC50 [1] [µM]	IC50 [2, 4] [µM]	Kd [3] [µM]	IC50 [2, 5] [µM]	IC50 ([1]; read-out: AlphaScreen IC50, disruption of HIF-2α / HIF-1β (ARNT) PAS B interaction, recombinant proteins 143 nM each) [µM]
CS(=O)(=O)c1sc(Oc2ccc(F)c(F)c2)c2c1C(O)C(F)(F)C2 (racemic) [Example 24a, 1-(3,4-difluorophenoxy)-5,5-difluoro-3-methanesulfonyl-4H,5H,6H-cyclopenta[c]thiophen-4-ol]	> 1	> 1	> 1		
CCC(Oc1sc(S(C)(=O)=O)c2c1CC(F)(F)[C@H]2O)C(F)(F)F (single isomer, unassigned) [Example 9a]	< 0.05	> 1	0.1 to 1		
CC(Oc1sc(S(C)(=O)=O)c2c1CC(F)(F)[C@H]2O)C(F)F (single isomer, unassigned) [Example 10a]	< 0.05			> 1	
CC(Oc1sc(S(C)(=O)=O)c2c1CC(F)(F)[C@H]2O)C(F)F (single isomer, unassigned) [Example 14a]				0.05 to 1	< 0.05
COC1(COc2sc(S(C)(=O)=O)c3c2CC(F)(F)[C@H]3O)CCC1 [Example 16a, (4S)-5,5-difluoro-3-methanesulfonyl-1-[(1-methoxycyclobutyl)methoxy]-4H,5H,6H-cyclopenta[c]thiophen-4-ol]	< 0.05	> 1	0.1 to 1		
CS(=O)(=O)c1sc(OCC(F)(F)F)c2c1[C@H](O)[C@@H](F)C2 [Example 17a, (4S,5S)-5-fluoro-3-methanesulfonyl-1-(2,2,2-trifluoroethoxy)-4H,5H,6H-cyclopenta[c]thiophen-4-ol]	< 0.05	0.05 to 1			
CS(=O)(=O)c1sc(OC2CCOCC2)c2c1[C@H](O)C(F)(F)C2 [Example 22a, (4S)-5,5-difluoro-3-methanesulfonyl-1-(oxan-4-yloxy)-4H,5H,6H-cyclopenta[c]thiophen-4-ol]	< 0.05		0.1 to 1		
CS(=O)(=O)c1sc(OCCOC(F)(F)F)c2c1[C@H](O)C(F)(F)C2 [Example 23a, (4S)-5,5-difluoro-3-methanesulfonyl-1-[2-(trifluoromethoxy)ethoxy]-4H,5H,6H-cyclopenta[c]thiophen-4-ol]	< 0.05	> 1			
CS(=O)(=O)c1sc(Oc2ccc(F)cc2)c2c1[C@H](O)C(F)(F)C2 [Example 29a, (4S)-5,5-difluoro-1-(4-fluorophenoxy)-3-methanesulfonyl-4H,5H,6H-cyclopenta[c]thiophen-4-ol]	> 1	> 1	> 1		
CS(=O)(=O)c1sc(Oc2cc(F)cc(Cl)c2)c2c1[C@H](O)C(F)(F)C2 [Example 30a, (4S)-1-(3-chloro-5-fluorophenoxy)-5,5-difluoro-3-methanesulfonyl-4H,5H,6H-cyclopenta[c]thiophen-4-ol]	> 1	> 1	> 1		
CS(=O)(=O)c1sc(Oc2cccc(C#N)c2)c2c1[C@H](O)C(F)(F)C2 [Example 31a, 3-{[(4S)-5,5-difluoro-4-hydroxy-3-methanesulfonyl-4H,5H,6H-cyclopenta[c]thiophen-1-yl]oxy}benzonitrile]	> 1	> 1	> 1		
CCOc1sc(S(C)(=O)=O)c2c1CC(F)(F)[C@H]2O [Example 32a, (4S)-1-ethoxy-5,5-difluoro-3-methanesulfonyl-4H,5H,6H-cyclopenta[c]thiophen-4-ol]	> 1	> 1			
CS(=O)(=O)c1sc(Oc2ccc(F)c(F)c2)c2c1[C@H](O)C(F)(F)C2 [Example 34a, (4S)-1-(3,4-difluorophenoxy)-5,5-difluoro-3-methanesulfonyl-4H,5H,6H-cyclopenta[c]thiophen-4-ol]	0.05 to 1	> 1			
